In patent publication US8513423B2 (Janssen Pharmaceutica, NV, priority 2010, dated 2013):
Where a chain is given by its changes, count along the chain named. Where two headings read alike, the source gives them in different places.

Key:
[1] = molecular target: T1, purified wild type MGL (wt-MGLL 6H-11-313) (Homo sapiens, UniProt Q99685); assay: MGL enzyme activity assay (4MU-B cleavage), wild type MGL; assay type: biochemical; conditions: 10 μM 4MU-B, 5 nM enzyme, 37° C., read-out: MGL wild type inh IC50
T1 construct: purified wild type MGL (wt-MGLL 6H-11-313)
T1 sequence (Q99685 1-303): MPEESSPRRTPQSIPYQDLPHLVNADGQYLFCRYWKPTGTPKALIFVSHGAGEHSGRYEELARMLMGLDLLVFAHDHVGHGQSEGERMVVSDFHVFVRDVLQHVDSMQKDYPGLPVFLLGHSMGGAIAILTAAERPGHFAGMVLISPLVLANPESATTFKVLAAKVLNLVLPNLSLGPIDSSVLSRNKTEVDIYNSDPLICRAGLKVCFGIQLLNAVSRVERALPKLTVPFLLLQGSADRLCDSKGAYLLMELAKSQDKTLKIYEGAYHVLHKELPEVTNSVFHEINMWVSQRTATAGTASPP
How it was run: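 Enzyme (5 nM final) cleaved 4MU-B (10 μM final) in 20 mM PIPES pH 7.0 with 150 mM NaCl and 0.001% Tween 20. Compounds were tested at 17 to 0.0003 μM final. Fluorescence (ex 335/em 440 nm) was monitored at 37° C for 5 min, and IC50 was fitted from fractional activity versus inhibitor concentration.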

mutant MGL = molecular target: T2, mutant MGL (Homo sapiens, UniProt Q99685, L169S/L176S); assay: MGL ThermoFluor assay - mutant; assay type: binding
T2 construct: purified mutant MGL (mut-MGLL 11-313 L179S L186S)
T2 sequence (Q99685 1-303 L169S/L176S): T1 sequence (Q99685 1-303) with L169S, L176S
How it was run: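 Thermal shift binding with 0.07 mg/ml L169S/L176S MGL, 100 μM 1,8-ANS, 200 mM NaCl, 0.001% Tween-20, 50 mM PIPES pH 7.0. Heated 40–90 °C at 1 °C/min, fluorescence (em 500 nm) tracked to give Tm; Kd fitted from 11-point concentration–Tm response, qKd when stocks quantified by qNMR.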

[2] = molecular target: T3, purified mutant MGL (mut-MGLL 11-313 L179S L186S) (Homo sapiens, UniProt Q99685, L169S/L176S); assay: MGL enzyme activity assay (4MU-B cleavage), mutant MGL; assay type: biochemical; conditions: 10 μM 4MU-B, 5 nM enzyme, 37° C., read-out: MGL mutant inh IC50
T3 construct: purified mutant MGL (mut-MGLL 11-313 L179S L186S)
T3 sequence (Q99685 1-303 L169S/L176S): T1 sequence (Q99685 1-303) with L169S, L176S
Procedure: All rate-based assays were performed in black 384-well polypropylene PCR microplates (Abgene) in a total volume of 30 μL. Substrate 4-methylumbelliferyl butyrate (4MU-B; Sigma) and either purified mutant MGL (mut-MGLL 11-313 L179S L186S) or purified wild type MGL (wt-MGLL 6H-11-313) were diluted separately into 20 mM PIPES buffer (pH=7.0), containing 150 mM NaCl and 0.001% Tween 20. Compounds of Formula (I) were pre-dispensed (50 nL) into the assay plate using a Cartesian Hummingbird prior to adding 4MU-B (25 μL of 1.2× solution to a final concentration of 10 μM) followed by enzyme (5 μL of a 6× solution to a final concentration of 5 nM) to initiate the reaction. Final compound concentrations ranged from 17 to 0.0003 μM. The fluorescence change due to 4MU-B cleavage was monitored with excitation and emission wavelengths of 335 and 440 nm, respectively, and a bandwidth of 10 nm (Safire^2, Tecan) at 37° C. for 5 min.
The IC50 values for compounds of Formula (I) were determined using Excel from a fit of the equation to the concentration-response plot of the fractional activity as a function of inhibitor concentration.

MGL = molecular target: T4, MGL (Rattus norvegicus, UniProt Q8R431); assay: 2-AG accumulation assay in rat brain homogenate; assay type: biochemical; conditions: compound @1 μM, read-out: Rat Brain 2AG % VehCntrl (%) @1 μM
T4 construct: one g rat brain was homogenized; from tissue; host or cells: rat brain homogenate
T4 sequence (Q8R431 1-303): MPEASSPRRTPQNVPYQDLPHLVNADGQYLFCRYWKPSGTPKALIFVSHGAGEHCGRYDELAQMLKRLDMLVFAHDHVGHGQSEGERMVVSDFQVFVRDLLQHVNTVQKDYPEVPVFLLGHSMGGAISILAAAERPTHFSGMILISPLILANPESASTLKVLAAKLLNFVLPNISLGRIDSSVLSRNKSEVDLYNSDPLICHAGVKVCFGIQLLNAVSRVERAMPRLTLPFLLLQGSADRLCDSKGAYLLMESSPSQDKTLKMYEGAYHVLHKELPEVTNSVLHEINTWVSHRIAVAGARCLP
How it was run: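 Rat brain homogenate was incubated with compound for 15 min at 37° C., after which CaCl2 was added to a final concentration of 10 mM. Incubation then continued for another 15 min at 37° C. in 5 mL total volume. Reactions were stopped by adding 6 mL of 2:1 chloroform/methanol. 2-AG in the organic phase was quantified by HPLC/MS.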

[3] = 0.07 mg/ml mutant MGL, pH=7.0, read-out: MGL mutant ThermoFluor Kd
[4] = compound concentration measured by qNMR, read-out: MGL mutant ThermoFluor qKd (using qNMR conc.)

IC50 [1] [nM]	Kd (mutant MGL; [3]) [nM]	IC50 [2] [nM]	2-AG accumulation, percent of vehicle control at 1 µM (MGL) [%]	Kd (mutant MGL; [4]) [nM]	Structure (SMILES)
258	100	79	109	–	O=C(c1ccc(-c2ccccc2)cc1)N1CC(C2CCN(C(=O)c3cscn3)CC2)C1 [Cpd 1, 4-[1-(Biphenyl-4-ylcarbonyl)azetidin-3-yl]-1-(1,3-thiazol-4-ylcarbonyl)piperidine]
< 5	–	–	561	1	O=C(c1ccc(-c2cccc(C(F)(F)F)c2)cc1)N1CCC(C2CN(C(=O)c3ccc[nH]3)C2)CC1 [Cpd 50, 4-[1-(1H-Pyrrol-2-ylcarbonyl)azetidin-3-yl]-1-{[3′-(trifluoromethyl)biphenyl-4-yl]carbonyl}piperidine]
< 5	28	–	335	–	O=C(c1ccc(Cc2cccc(C(F)(F)F)c2)cc1)N1CC(C2CCN(C(=O)c3cscn3)CC2)C1 [Cpd 13, 1-(1,3-Thiazol-4-ylcarbonyl)-4-[1-({4-[3-(trifluoromethyl)benzyl]phenyl}carbonyl)azetidin-3-yl]piperidine]
< 5	1.3	–	422	0.6	Cc1c(C(=O)N2CCC(C3CN(C(=O)c4ccc[nH]4)C3)CC2)sc2cc(C(F)(F)F)ccc12 [Cpd 62]
< 5	–	–	385	12.2	O=C(c1nccs1)N1CC(C2CCN(C(=O)c3ccc(-c4ccccc4)cc3F)CC2)C1 [Cpd 45]
< 5	8.9	< 5	329	–	O=C(c1ccc(-c2ccccc2)cc1)N1CC(C2CCN(C(=O)c3nccs3)CC2)C1 [Cpd 2, 4-[1-(Biphenyl-4-ylcarbonyl)azetidin-3-yl]-1-(1,3-thiazol-2-ylcarbonyl)piperidine]
12	–	–	875	4.8	O=C(c1ccc2c(ccn2-c2ccc(F)cc2)c1)N1CCC(C2CN(C(=O)c3cscn3)C2)CC1 [Cpd 73, 1-(4-Fluorophenyl)-5-({4-[1-(1,3-thiazol-4-ylcarbonyl)azetidin-3-yl]piperidin-1-yl}carbonyl)-1H-indole]
7	9	–	281	–	O=C(c1nccs1)N1CCC(C2CN(C(=O)c3ccc(-c4ccccc4)cc3F)C2)CC1 [Cpd 15, 4-{1-[(3-Fluorobiphenyl-4-yl)carbonyl]azetidin-3-yl}-1-(1,3-thiazol-2-ylcarbonyl)piperidine]
